The structures appear in SMILES notation.

We go through four compounds from patent US11559498B2, “Compositions and methods for in vivo lung and blood SNO repletion” (UNIVERSITY HOSPITALS CLEVELAND MEDICAL CENTER, priority 2020, dated 2023).

One series relates to SNO-Hb and muscle StO2. Put plainly: Hypoxic humans dosed with ENO: muscle oxygenation and SNO-Hb. To be noted: at study completion, FiO2 fixed at 0.12, FIG. 2. The class given is in vivo. The source says:
(§1) 3. Humans Each subject was fitted with an on-demand nonrebreather mask to regulate oxygen (FiO2) and ENO delivery. ENO was blended at 1-100 ppm.
(§2) Photolysis-chemiluminescence was used to quantify RBC SNO-Hb levels before and during ENO exposure. Blood was obtained through arterial lines and venipuncture. Method of sample preparation and measurement is as described in Hausladen (ref: Hausladen A et al. Assessment of nitric oxide signals by triiodide chemiluminescence. Proc. Natl. Acad. Sci. U.S.A 104, 2157-2162 (2007)).

For the next series, the system named is lung inflammation (BALF). Kind of series: Hyperoxic injury-induced lung inflammation in mice. The class given is in vivo. How it is done: (§3) 1. Mice are either placed in chambers where ambient oxygen and ENO levels (1-100 ppm) are controlled, or mice are ventilated as in 2. below.
Bronchoalveolar lavage fluid (BAL), cell and protein content, differential cell analysis, lung fixation and histological sectioning, were performed as previously described (Groves, Am. J. Respir Cell Mol. Biol. 47, 776-783 (2012); Lien Van Hoecke J Vis Exp. 2017; (123): 55398)).

Series [1] can be described thus: metHb during ventilation with ENO. The series is classed as in vivo, pigs/dogs. The conditions noted are these: 100 ppm ENO (maximum dose), ventilated large animals. The source says:
(§4) 2. Large animals (pigs/dogs) are ventilated. ENO was mixed into the ventilation circuit using a custom-made gas-blending device (1-100 ppm). One hundred ppm ENO was selected as the maximum dose based on the amounts of metHb (<5%).

Another series has as its system isolated human kidneys. Kind of series: Isolated human kidneys treated with ENO.
A further series has as its system GSNO levels in the lungs. Kind of series: GSNO levels in the lungs after inhalation of ENO. The series is classed as in vivo. The conditions noted are these: FIG. 1A.
From the text: as §3, §4, §1

The test system of a further series is SNO-Hb. Put plainly: SNO-Hb levels in the blood of humans after inhalation of ENO. The class given is in vivo. The conditions noted are these: FIG. 1B.
From the text: as §1, §2

A further series deals with lung injury. Put plainly: Rat ischemia/reperfusion (IR) preparation, lung injury. The series is classed as in vivo.
The subject of series [2] is airway hyper-responsiveness. Kind of series: Mouse airway hyper-responsiveness following hyperoxia. The series is classed as in vivo. To be noted: hyperoxia 60% oxygen for 21 days, FIG. 6.
For series [3], the system named is porcine circovirus type 2 (PCV2). Put plainly: PCV2 infection and replication. The class given is cell-based.
The conditions of series [4]: cited from earlier work.

`CCON=O` [ENO, ethyl nitrite]: in the series with SNO-Hb and muscle StO2, the SNO-Hb levels result was “doubled” and the “muscle StO2 (near infrared spectroscopy)” value was “at normoxic (prehypoxic) levels”. Moreover, in the series on lung inflammation (BALF) (ENO for 8 days, FIG. 3A), the “lung (BALF) leukocyte concentrations” value is “decreased” and the “lung (BALF) neutrophil concentrations” value was “decreased”. Also, the “accumulation of cytokine-induced neutrophil chemoattractant-1” value in the series with lung inflammation (BALF) (FIG. 3B) is on record as “attenuated”. For the same compound, in the series on lung inflammation (BALF) (FIG. 3C), the “expression of cytokine-induced neutrophil chemoattractant-1” value is on record as “attenuated”. Moreover, the “amounts of metHb” value in series [1] was below 5%. Besides, the “tissue SNO levels” value in the series with isolated human kidneys (FIG. 4A) is listed as “increased”. The “release of IL-10” value in the series on isolated human kidneys (FIG. 4B) was “increased”. The “level of IL-10” value with isolated human kidneys (FIG. 4C) is “increased”. Further, the “GSNO levels in the lungs over inhaled NO” value in the series on GSNO levels in the lungs (inhalation of ENO compared with inhaled NO) was “several fold”. Also, the “GSNO levels in the lungs” value in the series with GSNO levels in the lungs (inhalation of ENO) is recorded as “significantly increases”. The “SNO-Hb levels in the blood” value in the series on SNO-Hb is recorded as “significantly increases”.

For `N[C@@H](CCC(=O)N[C@@H](CSN=O)C(=O)NCC(=O)O)C(=O)O` [GSNO], in the series with lung injury (FIG. 5A), the lung injury entry was “significantly reduced”. In addition, the “expression of iNOS” value in the series on lung injury (FIG. 5B) is given as “significantly reduced”. Moreover, the “expression of NF-kappaB” value with lung injury (FIG. 5C) is “significantly reduced”. In addition, the airway hyper-responsiveness result in series [2] (inhalation) is given as “attenuated”. The “infection of PCV2” value in series [3] (FIG. 7A) is given as “significantly reduces”. Moreover, the “replication of PCV2” value in [3] (FIG. 7B) was “significantly reduces”.

As to `Cc1cc(C(N)=O)ccc1-n1c(CCC(=O)O)ccc1-c1ccc(-n2ccnc2)cc1` [N6022], the airway hyper-responsiveness entry in series [2] (ip administration) is “attenuated”.

Consider `CC(=O)N[C@@H](CS)C(=O)O` [N-acetylcysteine], for which the “solubility in chloroform and ether” value in series [4] (chloroform and ether) is on record as “practically insoluble”. Also, the “solubility in water and alcohol” value in series [4] (water and alcohol) is reported as “soluble”.
